# From patent US4663320A, “(2-oxo-1,2,3,5-tetrahydroimidazo[2,1-b]quinoazolinyl)oxyalkylamides, compositions and the use thereof” (Syntex (U.S.A.) Inc., priority 1985, dated 1987)
# Like-named read-outs stand apart in the source and are kept apart here.
# Columns and labels:
# [1] = tested on: Human platelet cyclic AMP phosphodiesterase; experiment: Cyclic AMP phosphodiesterase assay (human platelet); type: biochemical; conditions: for IC50: human platelet phosphodiesterase, 1 μM cyclic AMP as substrate; for Relative Potency: relative to theophylline (assigned a value of 1) on human platelet phosphodiesterase
# Experimental: (§1) The inhibition of cyclic AMP phosphodiesterase activity by the subject compounds was assayed by the method of Filburn and Karn, Analyt. Biochem., 52:505-516 (1973), using 1 μM cyclic AMP as the substrate. Human platelet cyclic AMP phosphodiesterase was obtained from human donors. Platelets were isolated and washed by centrifugation, the membranes ruptured by a sequential freeze-thaw procedure and hypotonic lysis and the soluble enzyme isolated by high speed centrifugation. The enzyme was stored in aliquots at -20° C.
# (§2) This table contains the IC50 values for human platelet phosphodiesterase and IC25 values for rat heart phosphodiesterase.
# [2] = tested on: rat heart phosphodiesterase; experiment: Cyclic AMP phosphodiesterase inhibition (rat heart); type: biochemical
# Experimental: as §1, §2
# [3] = Acute and delayed toxicity in mice; type: in vivo; conditions: mouse, in vivo, mice, aqueous suspension (polysorbate 80)
# Experimental: (§3) Three groups of three male mice (Sim:(ICR)fBR) in a weight range of 20 to 24 grams were used in this study. N-cyclohexyl-N-methyl-4-(2-oxo-1,2,3,5-tetrahydroimidazo[2,1-b]quinazolin- 7-yl)oxy-butyramide was administered intraperitoneally as an aqueous suspension (polysorbate 80).
# (§4) When the test compound was administered orally, also as an aqueous suspension (polysorbate 80), the results are as follows: […]
# [4] = tested on: male mice (Sim:(ICR)fBR); experiment: Acute and delayed toxicity in mice; type: in vivo; conditions: deaths/animals
# Experimental: as §3, §4
# [5] = tested on: Mongrel dogs; experiment: Inotropic activity in anesthetized dogs; type: in vivo; conditions: dog
# Experimental: Mongrel dogs were anesthetized intravenously with 35 mg/Kg sodium pentobarbital and supplemented as needed. Blood pressure was measured with a Statham pressure transducer via a cannula inserted from a femoral artery into the abdominal aorta. Heart rate was recorded by a cardiotachometer from a lead II electrocardiogram. Right ventricular contractile force was recorded from a Walton-Brodie strain gauge sutured to the right ventricle following a midsternal thoracotomy. A Harvard respirator was used to ventilate the dogs with room air through an endotracheal tube. The dog was bilaterally vagotomized. Following a midline laparotomy, a cannula was sutured into the duodenum for intraduodenal administration of test compound. A femoral vein was cannulated for administration of isoproterenol. All data were recorded on a Beckman R611 Dynograph.
# To assess the responsiveness of each dog, isoproterenol was given intravenously at half-log interval doses from 0.007 to 2.1 or 6.67 μg/Kg. The test compound was then administered intraduodenally, usually at a low dose of 2 mg/Kg and subsequently at higher doses of 6.32 and/or 20 mg/Kg, if necessary. In a few instances, some compounds administered intraduodenally at dose levels from 0.316 to 3.16 mg/Kg.
# [6] = tested on: Lewis Lung Carcinoma; experiment: Antimetastatic activity against Lewis Lung Carcinoma (Spontaneous Metastases); type: in vivo, mouse; conditions: oral 5 mg/kg every other day, day 20-21, p < 0.05
# Experimental: Mice (female, C57B1/6, 16-18 gm) were inoculated subcutaneously between the inguinal and axillary areas with 0.2 ml of a freshly prepared tumor brei. Mice were treated orally with control vehicle (0.5% carboxymethylcellulose (CMC) or with test compound in suspension in 0.5% CMC. Treatments were initiated one day after tumor implantation, and continued every other day throughout the experiment. 20-21 days after initial implantation of the tumor, mice were sacrificed, weight of the primary tumor was determined, and the number of lung metastases was determined by counting under a disecting microscope. The results are shown in Table III.
# [7] = tested on: B16-BL6 melanoma cells; experiment: Antimetastatic activity against B-16 Melanoma (B16-BL6); type: in vivo, mouse; conditions: oral 5 mg/kg every other day, day 20-21, control 10, p ≤ 0.02
# Experimental: (§5) Mice (female, C57B1/6, 16-18 gm) were injected intravenously with either 7.5×10^4 viable B16-BL6 or B16-F10 melanoma cells, as indicated. The mice were orally treated with vehicle or drug, starting one day after tumor cell injection, and continuing every other day until the mice were sacrificed 20-21 days after tumor cell inoculation. The number of lung metastases was determined as described above, and the results are shown in Table IV (B16-BL6) or Table V (B16-F10).
# [8] = tested on: B16-F10 melanoma cells; experiment: Antimetastatic activity against B-16 Melanoma (B16-F10); type: in vivo, mouse; conditions: oral 5 mg/kg every other day, day 20-21, control 23, p ≤ 0.01
# Experimental: as §5
structure (smiles),measurement,setting,value
"CN(C(=O)CCCOc1ccc2c(c1)CN1CC(=O)NC1=N2)C1CCCCC1 [N-cyclohexyl-N-methyl-4-(2-oxo-1,2,3,5-tetrahydroimidazo[2,1-b]quinazolin-7-yl)oxybutyramide]",IC50,[1],12.5 nM
same,Relative Potency,[1],"21,600"
same,Rat Heart IC25,[2],260 nM
same,LD50,"[3]; ip, intraperitoneal, read-out: LD50 (intraperitoneal)",> 1500 mg/kg
same,LD50,"[3]; oral, read-out: LD50 (oral)",> 1500 mg/kg
same,Death,"[4]; intraperitoneal, 500 mg/Kg",0/3
same,Death,"[4]; intraperitoneal, 1,000 mg/Kg",0/3
same,Death,"[4]; intraperitoneal, 1,500 mg/Kg",0/3
same,Death,"[4]; oral, 500 mg/Kg",0/3
same,Death,"[4]; oral, 1,000 mg/Kg",0/3
same,Death,"[4]; oral, 1,500 mg/Kg",0/3
same,"Blood Pressure, peak effect as % of max. isoproterenol","[5]; intraduodenal, 2 mg/kg",25%
same,"Heart Rate, peak effect as % of max. isoproterenol","[5]; intraduodenal, 2 mg/kg",30%
same,"Rt. Ventricular Contractile Force, peak effect as % of max. isoproterenol","[5]; intraduodenal, 2 mg/kg",48%
same,"Blood Pressure, peak effect as % of max. isoproterenol","[5]; intraduodenal, 6.23 mg/kg",96%
same,"Heart Rate, peak effect as % of max. isoproterenol","[5]; intraduodenal, 6.23 mg/kg",40%
same,"Rt. Ventricular Contractile Force, peak effect as % of max. isoproterenol","[5]; intraduodenal, 6.23 mg/kg",44%
same,Pulmonary Metastases Median,[6]; control 28,10.5
same,Size of Primary Tumor,"[6]; ± S.E., control 5.1 ± 0.4",3.9 ± 0.4 gm
same,Pulmonary Metastases Median,[7],3
same,Pulmonary Metastases Median,[8],1.5
"C[C@@H]1C(=O)NC2=Nc3ccc(OCCCC(=O)N(C)C4CCCCC4)cc3CN21 [N-cyclohexyl-N-methyl-4-(2-oxo-3-D-methyl-1,2,3,5-tetrahydroimidazo[2,1-b]quinazolin-7-yl)oxybutyramide]",IC50,[1],5.4 nM
same,Relative Potency,[1],"50,000"
same,Rat Heart IC25,[2],27 nM
same,"Blood Pressure, peak effect as % of max. isoproterenol","[5]; i.v., 0.1 mg/kg",82%
same,"Heart Rate, peak effect as % of max. isoproterenol","[5]; i.v., 0.1 mg/kg",73%
same,"Rt. Ventricular Contractile Force, peak effect as % of max. isoproterenol","[5]; i.v., 0.1 mg/kg",43%
same,"Blood Pressure, peak effect as % of max. isoproterenol","[5]; intraduodenal, 0.316 mg/kg",13%
same,"Heart Rate, peak effect as % of max. isoproterenol","[5]; intraduodenal, 0.316 mg/kg",18%
same,"Rt. Ventricular Contractile Force, peak effect as % of max. isoproterenol","[5]; intraduodenal, 0.316 mg/kg",18%
same,"Blood Pressure, peak effect as % of max. isoproterenol","[5]; intraduodenal, 1.0 mg/kg",49%
same,"Heart Rate, peak effect as % of max. isoproterenol","[5]; intraduodenal, 1.0 mg/kg",48%
same,"Rt. Ventricular Contractile Force, peak effect as % of max. isoproterenol","[5]; intraduodenal, 1.0 mg/kg",50%
same,"Blood Pressure, peak effect as % of max. isoproterenol","[5]; intraduodenal, 3.16 mg/kg",82%
same,"Heart Rate, peak effect as % of max. isoproterenol","[5]; intraduodenal, 3.16 mg/kg",72%
same,"Rt. Ventricular Contractile Force, peak effect as % of max. isoproterenol","[5]; intraduodenal, 3.16 mg/kg",53%
